Broadly, the IC50 is the midpoint of a concentration-inhibition curve. The Ki is a measure of affinity in units of concentration, obtained from inhibition or displacement. By EC50 is commonly meant the concentration at which the effect is half-maximal.

Data on eleven compounds can be found in patent publication US11530219B2, “Ligands to cereblon (CRBN)” (DANA-FARBER CANCER INSTITUTE, INC., priority 2018, dated 2022).

The target of one experiment is DDB1ΔB-CRBN (Homo sapiens (Human), UniProt Q96SW2). Kind of experiment: Atto565-Lenalidomide displacement assay (fluorescence polarization, CRBN binding). The following applies: for IC50: 10 nM Atto565-Lenalidomide, 100 nM DDB1ΔB-CRBN, n=2; for Ki: calculated from IC50 with probe Kd of 40 nM, competitive model. As for the experimental part:
Various inventive compounds were analyzed for cereblon binding. […] Compound titrations were incubated for 60 min at room temperature. The change in fluorescence polarization was monitored using a PHERAstar® FS microplate reader (BMG Labtech) for 1 h in 120s cycles.

The target in the next experiment is CRBN (Homo sapiens (Human), UniProt Q96SW2). Nature of the experiment: Cellular CRBN dBET6 displacement assay (BRD4BD2-GFP/mCherry reporter cells). The format is cell-based. The following applies: Flip-In 293 cells stably expressing BRD4BD2-GFP, 100 nM dBET6, 5 hours; read-out: Cellular CRBN-BRD4 dBET6 displacement EC50. As for the experimental part: BRD4BD2 were subcloned into mammalian pcDNA5/FRT Vector (Ampicillin and Hygromycin B resistant) modified to contain MCS-eGFP-P2A-mCherry. […] Following a 2-3 passage cycle, FACS (FACSAria™ II, BD) was used to enrich for cells expressing eGFP and mCherry.
Sequence of CRBN (Q96SW2 whole entry): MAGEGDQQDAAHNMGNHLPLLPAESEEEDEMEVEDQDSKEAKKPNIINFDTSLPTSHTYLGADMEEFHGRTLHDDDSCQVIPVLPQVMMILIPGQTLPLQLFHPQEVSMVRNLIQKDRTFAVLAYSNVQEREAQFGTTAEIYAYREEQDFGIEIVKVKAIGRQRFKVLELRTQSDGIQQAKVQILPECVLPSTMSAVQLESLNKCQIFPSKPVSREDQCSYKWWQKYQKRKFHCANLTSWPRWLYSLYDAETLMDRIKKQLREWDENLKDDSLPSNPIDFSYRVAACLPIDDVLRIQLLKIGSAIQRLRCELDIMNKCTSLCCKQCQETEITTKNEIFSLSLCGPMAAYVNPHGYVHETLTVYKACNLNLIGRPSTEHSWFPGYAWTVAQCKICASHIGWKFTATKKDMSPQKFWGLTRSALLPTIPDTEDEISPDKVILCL
Signal from minimal 3000 events per well was acquired and the eGFP and mCherry florescence monitored. Data was analyzed using FlowJo® (FlowJo®, LCC). […] The eGFP protein abundance relative to mCherry was then quantified as a ten-fold amplified ratio for each individual cell using the formula: 10×eGFP/mCherry. The median of the ratio was then calculated per set, normalized to the median of the DMSO ratio.
This assay provided a readout of cellular CRBN binding impacted by the permeability of the molecule tested.

Sequence of DDB1ΔB-CRBN (Q96SW2 whole entry, stated change not applied): as the sequence (Q96SW2 whole entry) above

As for `O=C1CCC(N2Cc3c(NC(=O)CNc4ccnc(Nc5ccc6c(c5)OCO6)n4)cccc3C2=O)C(=O)N1` (centres unmarked) [Compound 5, 2-((2-(benzo[d][1,3]dioxol-5-ylamino)pyrimidin-4-yl)amino)-N-(2-(2,6-dioxopiperidin-3-yl)-1-oxoisoindolin-4-yl)acetamide], on DDB1ΔB-CRBN, the IC50 amounted to 42.5 µM and the inhibitory constant (Ki) was 12.2 µM.
In the case of `O=C1CCC(N2Cc3c(NC(=O)CNc4ccnc(N5CCN(c6cccc(C(F)(F)F)c6)CC5)n4)cccc3C2=O)C(=O)N1` (centres unmarked) [Compound 16, N-(2-(2,6-dioxopiperidin-3-yl)-1-oxoisoindolin-4-yl)-2-((2-(4-(3-(trifluoromethyl)phenyl)piperazin-1-yl)pyrimidin-4-yl)amino)acetamide], at DDB1ΔB-CRBN, the half-inhibitory concentration (IC50) came to 0.517 µM and the Ki is 0.13 µM.
Taken in the same sequence, the figures for `O=C1CCC(N2Cc3c(NC(=O)CNc4ccnc(N5CCC[C@H]5CO)n4)cccc3C2=O)C(=O)N1` (stereo partly drawn) [Compound 4, N-(2-(2,6-dioxopiperidin-3-yl)-1-oxoisoindolin-4-yl)-2-((2-((S)-2-(hydroxymethyl)pyrrolidin-1-yl)pyrimidin-4-yl)amino)acetamide] were 8.5 µM and 2.4 µM.
For `CC(=O)c1ccc(-c2nccc(NCC(=O)Nc3cccc4c3CN(C3CCC(=O)NC3=O)C4=O)n2)cc1` (centres unmarked) [Compound 12, 2-((2-(4-acetylphenyl)pyrimidin-4-yl)amino)-N-(2-(2,6-dioxopiperidin-3-yl)-1-oxoisoindolin-4-yl)acetamide], in that order: 13.8 µM and 3.9 µM.
As for `O=C1CCC(N2Cc3c(NC(=O)CNc4ccnc(-c5ccc(F)cc5)n4)cccc3C2=O)C(=O)N1` (centres unmarked) [Compound 11, N-(2-(2,6-dioxopiperidin-3-yl)-1-oxoisoindolin-4-yl)-2-((2-(4-fluorophenyl)pyrimidin-4-yl)amino)acetamide], on DDB1ΔB-CRBN, the IC50 was found to be 14.7 µM and the Ki is 4.2 µM.
For `O=C1CCC(N2Cc3c(NC(=O)CNc4ccnc(N5CCC[C@@H]5CO)n4)cccc3C2=O)C(=O)N1` (stereo partly drawn) [Compound 14, N-(2-(2,6-dioxopiperidin-3-yl)-1-oxoisoindolin-4-yl)-2-((2-((R)-2-(hydroxymethyl)pyrrolidin-1-yl)pyrimidin-4-yl)amino)acetamide], in that order: 1.6 µM and 0.44 µM.
Taken in the same sequence, the figures for `O=C1CCC(N2Cc3c(NC(=O)CNc4ccnc(NCc5ccc6c(c5)OCO6)n4)cccc3C2=O)C(=O)N1` (centres unmarked) [Compound 3, 2-((2-((benzo[d][1,3]dioxol-5-ylmethyl)amino)pyrimidin-4-yl)amino)-N-(2-(2,6-dioxopiperidin-3-yl)-1-oxoisoindolin-4-yl)acetamide] were 12.5 µM and 13.6 µM.
Taken in the same sequence, the figures for `O=C1CCC(N2Cc3c(NC(=O)CNc4ccnc(-c5cc6ccccc6o5)n4)cccc3C2=O)C(=O)N1` (centres unmarked) [Compound 13, 2-((2-(benzofuran-2-yl)pyrimidin-4-yl)amino)-N-(2-(2,6-dioxopiperidin-3-yl)-1-oxoisoindolin-4-yl)acetamide] were 28.9 µM and 8.3 µM.
Turning to `O=C1CCC(N2Cc3c(NC(=O)CNc4ccnc(NCCCN5CCCC5=O)n4)cccc3C2=O)C(=O)N1` (centres unmarked) [Compound 6, N-(2-(2,6-dioxopiperidin-3-yl)-1-oxoisoindolin-4-yl)-2-((2-((3-(2-oxopyrrolidin-1-yl)propyl)amino)pyrimidin-4-yl)amino)acetamide], at DDB1ΔB-CRBN, the IC50 stood at 22.9 µM and the Ki is 6.5 µM.
For the compound `O=C1CCC(N2Cc3c(Nc4ccnc(Nc5ccc6c(c5)-c5ccccc5C6)n4)cccc3C2=O)C(=O)N1` (centres unmarked) [Compound 46, 3-(4-((2-((9H-fluoren-3-yl)amino)pyrimidin-4-yl)amino)-1-oxoisoindolin-2-yl)piperidine-2,6-dione], the EC50 at CRBN was determined as 1.13 µM.
Same read-out and setting: as for `COc1cc(F)ccc1-c1nccc(Nc2cccc3c2CN(C2CCC(=O)NC2=O)C3=O)n1` (centres unmarked) [Compound 33, 3-(4-((2-(4-fluoro-2-methoxyphenyl)pyrimidin-4-yl)amino)-1-oxoisoindolin-2-yl)piperidine-2,6-dione], the figure is 2.59 µM.
